Assay results: US7781394B2 (Institut Pasteur, priority 2006, dated 2010)
Read-outs that look alike come from different tables or passages of the source.

Experiments:
Type in all cases: biochemical
[1] = molecular target: T1, His-RCL (deoxynucleoside 5′-monophosphate N-glycosidase) (Rattus norvegicus, UniProt O35820); assay: Kinetic parameters of His-RCL (wild-type) with dNMP substrates, initial velocity measurements
T1 construct: made in house; host or cells: E. coli Bli5 (BL21 (DE3) pDIA17), plasmid pET28aRcl
T1 sequence (O35820 1-163): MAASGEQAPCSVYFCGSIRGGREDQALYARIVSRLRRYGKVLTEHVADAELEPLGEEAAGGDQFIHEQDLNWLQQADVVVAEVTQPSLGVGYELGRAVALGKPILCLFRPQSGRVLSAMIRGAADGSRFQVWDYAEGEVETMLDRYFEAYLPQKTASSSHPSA
Experimental: The enzyme activity was determined either spectrophotometrically by following one of the reaction products, hypoxanthine or deoxyribose 5-phosphate, or by HPLC separation and UV detection of the released nucleobase and the remaining substrate. a) dIMP was used as a substrate and the hypoxanthine released oxidized to uric acid by xanthine oxidase. […] The decrease in absorbance at 340 nm was followed on a Amersham Biosciences Ultrospec 3100 pro spectrophotometer, using a millimolar absorbance coefficient of 6.22. […] Initial velocity experiments were carried out at variable concentrations of the six deoxynucleoside 5'-monophosphate: dAMP, dCMP, dGMP, dIMP, dTMP and dUMP (Table 1).

RCL [2] = molecular target: T2, RCL (Rattus norvegicus, UniProt O35820); assay: pH dependence of RCL activity at saturating substrate; settings: for % of the maximal activity: pH 7.0; for % of the enzyme activity remained: pH 8.0; for pH optimum: saturating concentrations of substrate
T2 construct: made in house; host or cells: E. coli Bli5 (BL21 (DE3) pDIA17); pET24dRcl (untagged) or pET28aRcl (His-tagged)
T2 sequence (O35820 1-163): T1 sequence (O35820 1-163)
Experimental: Catalytic properties of the recombinant proteins. […] 50% of the maximal activity was still observed at pH 7.0 in the case of dCMP while it was only 20% in the case of dGMP. In both cases at pH 8.0, only 10% of the enzyme activity remained. Several metals were tested for their ability to stimulate or inhibit the reaction: Ca^2+, Mg^2+, Zn^2+, Na^+, and K^+.

RCL [3] = molecular target: T2, RCL; assay: Compounds tested as substrate or inhibitor of RCL enzyme activity (dGMP hydrolysis); settings: for substrate or inhibitor of the enzyme activity: versus dGMP as substrate; for Ki: competitive for dGMP, double reciprocal plot
Experimental: The enzyme activity was determined either spectrophotometrically by following one of the reaction products, […] or deoxyribose 5-phosphate, or by HPLC separation and UV detection of the released nucleobase and the remaining substrate.
The initial velocity of the reaction was measured either at variable concentration of dGMP both in the absence and presence of inhibitors, or at fixed concentration of dGMP and variable concentrations of inhibitors allowing the testing of the nature of the inhibition.

[4] = Table 3, additional substrates of His-RCL, in 1/s
[5] = Table 3, additional substrates of His-RCL, read-out: Km
[6] = Table 1, substrate of His-RCL, five concentrations
[7] = purine deoxynucleotides, read-out: Km of RCL
[8] = pyrimidine deoxynucleotides, read-out: Km of RCL

CCNc1nc2c(ncn2[C@H]2C[C@H](O)[C@@H](COP(=O)(O)O)O2)c(=O)[nH]1 [N2-ethyl-dGMP]
kcat [1, 4]: 0.0528 | Km [1, 5]: 71 ± 8 µM

Nc1ncnc2c1ncn2[C@H]1C[C@H](O)[C@@H](COP(=O)(O)O)O1 [dAMP]
kcat [1, 6]: 0.0066 s⁻¹ | Km [1, 7]: 250 µM

C[n+]1cn([C@H]2C[C@H](O)[C@@H](COP(=O)(O)O)O2)c2nc(N)[nH]c(=O)c21 [N7-methyl-dGMP]
kcat [1, 4]: 2.376 | Km [1, 5]: 470 ± 68 µM

Nc1nc2c(ncn2[C@H]2C[C@H](O)[C@@H](COP(=O)(O)O)O2)c(=O)[nH]1 [dGMP]
Vmax [1]: 0.09 U. mg^−1 | kcat [1, 6]: 0.0297 s⁻¹ | kcat ([1]; Table 2, Wt His-RCL, dGMP 250 μM to 20 mM): 0.0298 s⁻¹ | kcat [1, 4]: 0.033 | Km [1, 5]: 77 ± 20 µM | kcat ([1]; corresponds to Vmax): 0.0268 s⁻¹ | times more efficiently cleaved than dAMP ([1]; kcat/Km comparison): 20 times | times more efficiently cleaved than dIMP ([1]; kcat/Km comparison): 40 times | Km [1, 7]: 50 µM | % of the maximal activity (RCL [2]): 20% | % of the enzyme activity remained (RCL [2]): 10% | pH optimum (RCL [2]): ~6.0 pH

Nc1nc2c(ncn2[C@H]2C[C@H](OP(=O)(O)O)[C@@H](CO)O2)c(=O)[nH]1 [2′-deoxyguanosine 3′-monophosphate]
substrate or inhibitor of the enzyme activity (RCL [3]): neither a substrate nor an inhibitor

Nc1ccn([C@H]2C[C@H](O)[C@@H](COP(=O)(O)O)O2)c(=O)n1 [dCMP]
kcat [1, 6]: 0.0231 s⁻¹ | Km [1, 8]: 4000 µM | % of the maximal activity (RCL [2]): 50% | % of the enzyme activity remained (RCL [2]): 10% | pH optimum (RCL [2]): ~6.0 pH

CSc1nc(N)nc2c1ncn2[C@@H]1O[C@H](COP(=O)(O)O)[C@@H](O)[C@H]1O
Ki (RCL [3]): 10 µM | substrate or inhibitor of the enzyme activity (RCL [3]): competitive inhibitors

NC1=NC(=O)C2=NC(=O)N([C@H]3C[C@H](O)[C@@H](COP(=O)(O)O)O3)C2=N1 [8-oxo-dGMP, 8-oxo-deoxyguanosine 5′-monophosphate]
substrate or inhibitor of the enzyme activity (RCL [3]): neither a substrate nor an inhibitor

Nc1nc2c(ncn2[C@@H]2O[C@H](COP(=O)(O)O)[C@@H](O)[C@H]2O)c(=O)[nH]1 [GMP]
Ki (RCL [3]): 20 µM | substrate or inhibitor of the enzyme activity (RCL [3]): competitive inhibitors

COc1nc(N)nc2c1ncn2[C@H]1C[C@H](O)[C@@H](COP(=O)(O)O)O1 [06-methyl-dGMP]
kcat [1, 4]: 0.033 | Km [1, 5]: 61 ± 16 µM

Cc1cn([C@H]2C[C@H](O)[C@@H](COP(=O)(O)O)O2)c(=O)[nH]c1=O [dTMP]
Km [1, 8]: > 50000 µM

O=c1ccn([C@H]2C[C@H](O)[C@@H](COP(=O)(O)O)O2)c(=O)[nH]1 [dUMP]
kcat [1, 6]: 0.158 s⁻¹ | Km [1, 8]: 15000 µM
